# Assay results reported in patent publication US20030203915A1, “Nitric oxide donors, compositions and methods of use related applications” (priority 2002, published 2003).
# Counter-ions that a name gives are not always drawn. Like-named read-outs stand apart in the source and are kept apart here.
# What was measured:
# [1] = test system: human coronary artery smooth muscle cells (CASMC); assay: Vascular Smooth Muscle Cell (SMC) Antiproliferation Assay; format: cell-based
# Procedure: The cells used in this assay were-human coronary artery smooth-muscle cells (CASMC) supplied by Clonetics Corp. (San Diego, Calif.).
# Stock solutions of the test compounds were prepared just prior to addition to the cells by dissolving in ethanol at a concentration of 1000 times the highest concentration to be assayed. This stock solution was diluted, as required, with ethanol to lower concentrations. […] Control cultures received 2 μL of ethanol per well (n=4). On the following morning, the cultures were examined microscopically and their condition recorded. On the third day after test compound addition (˜68 hr), the cultures were examined microscopically again and the viable cells counted with an hemacytometer following trypsinization with 0.25% trypsin-1 mM EDTA. Trypan Blue dye exclusion was used to discriminate between viable and dead cells.
# [2] = CASMC, viable cell count (Trypan Blue) ~68 hr after compound addition, non-nitrosylated (sulfhydryl) compound
# [3] = CASMC, viable cell count (Trypan Blue) ~68 hr after compound addition, nitrosylated (nitrosothiol) compound, read-out: IC 50 μM, Nitrosylated Compound (inhibition of proliferation of vascular smooth muscle cells)
# [4] = Homo sapiens, CASMC, viable cell count (Trypan Blue) ~68 hr after compound addition, nitrosylated (nitrosothiol) compound, read-out: IC 50 μM, Nitrosylated Compound (inhibition of proliferation of vascular smooth muscle cells)
# [5] = CASMC, viable cell count (Trypan Blue) ~68 hr after compound addition, non-nitrosylated (sulfhydryl) compound, read-out: IC 50 μM, Non-nitrosylated Compound (inhibition of proliferation of vascular smooth muscle cells)
# [6] = Homo sapiens, CASMC, viable cell count (Trypan Blue) ~68 hr after compound addition, non-nitrosylated (sulfhydryl) compound, read-out: IC 50 μM, Non-nitrosylated Compound (inhibition of proliferation of vascular smooth muscle cells)
compound,measurement,setting,value
"CC1(S)CN2CCC1CC2.Cl (stereo not shown) [Example 36b, 3-Methylquinudidine-3-thiol hydrochloride]","IC 50 μM, Non-nitrosylated Compound (inhibition of proliferation of vascular smooth muscle cells)",[1]; [2],no inhibition
"CC(C)(S)CNC(=O)NCC(C)(C)S [Example 20c, N-(2-Methyl-2-sulfanylpropyl)((2-methyl-2-sulfanylpropyl)amino)carboxade]","IC 50 μM, Non-nitrosylated Compound (inhibition of proliferation of vascular smooth muscle cells)",[1]; [2],slight inhibition
"O=NSC1(CC(=O)OCC(CO[N+](=O)[O-])(CO[N+](=O)[O-])CO[N+](=O)[O-])C2CC3CC(C2)CC1C3 (stereo not shown) [Example 37, 2,2-Bis((nitrooxy)methyl)-3-(nitrooxy)propyl 2-(2-(nitrosothio)adamantan-2-yl)acetate]",IC50,"[1]; Homo sapiens, 68 h, read-out: IC 50 μM, Nitrosylated Compound (inhibition of proliferation of vascular smooth muscle cells)",5 µM
"CC1(SN=O)C2CC3CC(C2)CC1C3 (stereo not shown) [Example 25c, (2-Methyladamantan-2-yl)nitrosothio]",IC50,[1]; [3],33 µM
"CC(C)(S)CN1C(=O)NC(=O)C1=O [Example 21b, 1-(2-Methyl-2-sulfanylpropyl)imidazolidine-2,4,5-trione]","IC 50 μM, Non-nitrosylated Compound (inhibition of proliferation of vascular smooth muscle cells)",[1]; [2],no inhibition
"O=NSC1(C2OCCCO2)CCCCC1 [Example 46b, 2-(1-Nitrosomercaptocyclohex-1-yl)-1,3-dioxane]",melting point,,34 to 36 °C
same,IC50,[1]; [4],47 µM
"CC(C)(S)CN [Example 18a, 2-Mercapto-2-methyl-1-propylamine]","IC 50 μM, Non-nitrosylated Compound (inhibition of proliferation of vascular smooth muscle cells)",[1]; [2],slight inhibition
"NC(=O)CC1(SN=O)C2CC3CC(C2)CC1C3 (stereo not shown) [Example 12d, 2-(2-(Nitrosothio)adamantan-2-yl)acetamide]",IC50,[1]; [4],12 µM
"CC(C)(C)OC(=O)CC1(SN=O)C2CC3CC(C2)CC1C3 (stereo not shown) [Example 29, tert-Butyl 2-(2-(nitrosothio)adamantan-2-yl)acetate]",melting point,,85 to 87 °C
same,IC50,[1]; [4],11 µM
"COP(=O)(CC(S)(C1CC1)C1CC1)OC [Example 47a, Dimethyl (2,2-dicyclopropyl-2-mercaptoethyl)phosphonate]","IC 50 μM, Non-nitrosylated Compound (inhibition of proliferation of vascular smooth muscle cells)",[1]; [2],slight inhibition
"COP(=O)(CC(SN=O)(C1CC1)C1CC1)OC [Example 47b, Dimethyl (2,2-dicyclopropyl-2-(nitrosothio)ethyl)phosphonate]",IC50,[1]; [3],41 µM
"C[N+](C)(CCNC(=O)CC1(S)C2CC3CC(C2)CC1C3)Cc1ccccc1.[Cl-] (stereo not shown) [Example 43b, N-(2-(Dimethylbenzylammonium)ethyl)-2-(2-sulfanyladamantan-2-yl)acetamide chloride]","IC 50 μM, Non-nitrosylated Compound (inhibition of proliferation of vascular smooth muscle cells)",[1]; [2],no inhibition
"CC(C)(CNC(=O)CSCC(=O)O)SN=O [Example 5, 2-((N-(2-Methyl-2-(nitrosothio)propyl)carbamoyl)methylthio)acetic acid]",melting point,,47 to 51 °C
"CC1(C)c2ccccc2C(C)(C)C1(CC#N)SN=O [Example 4, 2-(1,1,3,3-Tetramethyl-2-(nitrosothio)indan-2-yl)ethanenitrile]",melting point,,67 to 69 °C
CC(C)(S)CNC(=O)C(C)(C)CCC(=O)O [Example 27a],IC50,[1]; [5],78 µM
"SC1(C2OCCO2)CCCCC1 [Example 45a, 2(1-Mercaptocyclohex-1-yl)-1,3-dioxolane]","IC 50 μM, Non-nitrosylated Compound (inhibition of proliferation of vascular smooth muscle cells)",[1]; [2],slight inhibition
"CC(C)(S)CN1C(=O)C2C3C=CC(C3)C2C1=O (stereo not shown) [Example 11a, 4-Aza-4-(2-methyl-2-sulfanylpropy)tricyclo(5.2.1.0<2,6>)dec-8-ene-3,5-dione]",IC50,[1]; [5],80 µM
"C[N+](C)(C)CCNC(=O)CC1(SN=O)C2CC3CC(C2)CC1C3 (stereo not shown) [Example 44c, 2-(2-(Nitrosothio)adamantan-2-yl)-N-(2-(trimethylammonium)ethyl)-acetamide chloride]",IC50,[1]; [3],33.5 µM
"CC(C)(CNC(=O)CCCC(=O)O)SN=O [Example 19b, 4-(N-(2-Methyl-2-(nitrosothio)propyl)carbamoyl)butanoic acid]",melting point,,104 to 107 °C
same,IC50,[1]; [4],50 µM
"CC(C)(CN1C(=O)C2C3C=CC(C3)C2C1=O)SN=O (stereo not shown) [Example 11b, 4-Aza-4-(2-methyl-2-(nitrosothio)propyl)tricyclo(5.2.1.0<2,6>)dec-8-ene-3,5-dione]",IC50,[1]; [4],16 µM
"CC1(SN=O)CN2CCC1CC2 (stereo not shown) [Example 36c, (3-Methylquinudidin-3-yl)nitrosothio hydrochlroide]",IC50,[1]; [3],22 µM
"C[N+](C)(CCNC(=O)CC1(SN=O)C2CC3CC(C2)CC1C3)Cc1ccccc1 (stereo not shown) [Example 43c, N-(2-(Dimethylbenzylammonium)ethyl)-2-(2-(nitrosothio)adamantan-2-yl)acetamide chloride]",IC50,[1]; [3],27 µM
"CC(C)(CN)SN=O [Example 38a, 2-Methyl-2-(nitrosothio)propylamine hydrochloride]",IC50,[1]; [4],40 to 60 µM
"CSc1nccc(NCC(C)(C)SN=O)n1 [Example 18c, (2-Methyl-2-(nitrosothio)propyl)(2-methylthiopyrimidin-4-yl)amine]",melting point,,77 to 79 °C
"CC12CCC(C1)C(C)(C)C2(CCO)SN=O (stereo not shown) [Example 7, 2-(1,3,3-Trimethyl-2-(nitrosothio)bicyclo(2.2.1)hept-2-yl)ethan-1-ol]",melting point,,81 to 85 °C
"CC(C)(CN1C(=O)NC(=O)C1=O)SN=O [Example 21c, 1-(2-Methyl-2-(nitrosothio)propyl)imidazolidine-2,4,5-trione]",melting point,,80 to 82 °C
same,IC50,[1]; [4],12 µM
"O=NSC1(CC(=O)NCCO)C2CC3CC(C2)CC1C3 (stereo not shown) [Example 34d, N-(2-Hydroxyethyl)-2-(2-(nitrosthio)adamantan-2-yl)acetamide]",IC50,[1]; [3],23 µM
"CC(C)(C)OC(=O)CC1(S)C2CC3CC(C2)CC1C3 (stereo not shown) [Example 12a, tert-Butyl-2-(2-sulfanyladamant-2-yl)acetate]",IC50,[1]; [6],25 µM
"SC1(C2OCCCO2)CCCCC1 [Example 46a, 2-(1-Mercaptocyclohex-1-yl)-1,3-dioxane]","IC 50 μM, Non-nitrosylated Compound (inhibition of proliferation of vascular smooth muscle cells)",[1]; [2],no inhibition
"CC(C)(CNC(=O)C(C)(C)CO[N+](=O)[O-])SN=O [Example 38b, 2,2-Dimethyl-N-(2-methyl-2-(nitrosothio)propyl)-3-(nitrooxy)propanamide]",IC50,[1]; [4],50 µM
"O=NSC1(CO)CCN(C(=O)OCc2ccccc2)CC1 [Example 26e, Phenylmethyl 4-(hydroxymethyl)-4-(nitrosothio)piperidinecarboxylate]",IC50,[1]; [3],33 µM
"CC(C)(CNC(=O)C(C)(C)CCC(=O)O)SN=O [Example 27b, 4-Methyl-4-(N-(2-methyl-2-(nitrosothio)propyl)carbamoyl)pentanoic acid]",melting point,,93 to 96 °C
same,IC50,[1]; [4],34 µM
"CC(C)(CNC(=O)NCC(C)(C)SN=O)SN=O [Example 20d, N-(2-Methyl-2-(nitrosothio)propyl)((2-methyl-2-(nitrosothio)propyl)amino)carboxamide]",IC50,[1]; [4],28 µM
"CSc1nccc(NCC(C)(C)S)n1 [Example 18b, 2-Methyl-1-((2-methylthiopyrimidin-4-yl)amino)propane-2-thiol]",IC50,[1]; [4],26 µM
"COc1ccc(C(=O)OCCC2(SN=O)C3CC4CC(C3)CC2C4)cc1 (stereo not shown) [Example 31, 2-(2-(Nitrosothio)adamantan-2-yl)ethyl 4-methoxybenzoate]",melting point,,100 to 101 °C
"CC1(S)C2CC3CC(C2)CC1C3 (stereo not shown) [Example 25b, 2-Methyladamantane-2-thiol]",IC50,[1]; [6],65 µM
"CC(C)(S)CNC(=O)CCCC(=O)O [Example 19a, 4-(N-(2-Methyl-2-sulfanylpropyl)carbamoyl)butanoic acid]",IC50,[1]; [6],> 200 µM
"C[N+](C)(C)CCNC(=O)CC1(S)C2CC3CC(C2)CC1C3.[Cl-] (stereo not shown) [Example 44b, 2-(2—Sulfanyladamantan-2-yl)-N-(2(trimethylammonium)ethyl)acetamide chloride]","IC 50 μM, Non-nitrosylated Compound (inhibition of proliferation of vascular smooth muscle cells)",[1]; [2],no inhibition
"NC(=O)CC1(S)C2CC3CC(C2)CC1C3 (stereo not shown) [Example 12c, 2-(2-Sulfanyladamantan-2-yl)acetamide]","IC 50 μM, Non-nitrosylated Compound (inhibition of proliferation of vascular smooth muscle cells)",[1]; [2],slight inhibition
"O=C(OCc1ccccc1)N1CCC(S)(CO)CC1 [Example 26d, Phenylmethyl 4-(hydroxymethyl)-4-sulfanylpiperidinecarboxylate]","IC 50 μM, Non-nitrosylated Compound (inhibition of proliferation of vascular smooth muscle cells)",[1]; [2],no inhibition
"CC(C)(C)C(CC#N)(SN=O)C(C)(C)C [Example 15, 3-(tert-Butyl)-4,4-dimethyl-3-(nitrosothio)pentanenitrile]",melting point,,92 to 93 °C
"O=C(CC1(S)C2CC3CC(C2)CC1C3)NCCO (stereo not shown) [Example 34c, N-(2-Hydroxyethyl)-2-(2-sulfanyladamantan-2-yl)acetamide]","IC 50 μM, Non-nitrosylated Compound (inhibition of proliferation of vascular smooth muscle cells)",[1]; [2],no inhibition
"O=NSC1(C2OCCO2)CCCCC1 [Example 45b, 2(1-Nitrosomercaptocyclohex-1-yl)-1,3-dioxolane]",melting point,,37 to 39 °C
same,IC50,[1]; [4],42 µM
